From patent publication US11707539B2, “FAP-targeted radiopharmaceuticals and imaging agents, and uses related thereto” (Trustees of Tufts College, priority 2020, dated 2023) come the findings set out here.

As a reminder, the IC50 is the concentration that gives 50% inhibition.

Type in all cases: biochemical
For test [1], the target named is recombinant human fibroblast activation protein (FAP) (Homo sapiens (Human), UniProt Q12884). Description: In vitro IC50 assay, fibroblast activation protein (Example 15). The procedure: (§1) The purpose of this assay is to determine the IC50 of various inhibitors against recombinant human dipeptidyl peptidase IV (DPPIV), fibroblast activation protein (FAP) or prolyl oligopeptidase (PREP).
(§2) The assays are conducted in the following steps: • 1 Dissolve the compound in DMSO to a final concentration of 100 mM. From this, prepare a 1 mM stock at pH 7.5 in 50 mM Tris, 140 mM NaCl Buffer (FAP)/pH 7.5 in 25 mM Tris, 250 mM NaCl Buffer/pH 8.0 140 mM NaCl Buffer (PREP). • 2. Serial dilute (1:10) the 1 mM compound stocks prepared previously into the appropriate assay buffer (FAP: 50 mM Tris, 140 mM NaCl, pH 7.5/PREP: 25 mM Tris, 0.25 M NaCl, pH 7.5/DPPIV: 25 mM Tris, pH 8.0) to one row of a 96-well plate. • 3. […] Dilute the enzymes into their appropriate assay buffers. The final enzyme concentrations should be 0.1, 1.2, and 0.6 nM for DPPIV, FAP and PREP respectively. Add 180 μL to each well needed in columns 2-10. Column 1 (A,B,C) should be prepared with 200 ul of appropriate assay buffer as control. Column 1 (D,E,F,G,H) should be prepared with 20 ul of appropriate assay buffer and 180 ul enzyme as no inhibitor control. • 5. Add 20 μL of the compound of interest from the dilution plate prepared in step 2 to columns 2-10 of the assay plate where appropriate. Each sample should be tested in triplicate. Allow this to incubate for 10 minutes at room temperature, shaking the plate for the first two minutes. • 6. Add 10 μL of 20× substrate prepared in step 3 to each well and allow this to incubate for 15 minutes at room temperature, shaking the plate for the first two minutes. • 7. Read the fluorescence at λex: 380, λem: 460. (DPcore=[dAla|dSerGly]-[boroPro|Pro-nitrile], XXaa=alpha-amino acid)

Test [2] concerns the target recombinant human dipeptidyl peptidase IV (DPPIV) (Homo sapiens (Human), UniProt P27487). Description: In vitro IC50 assay, dipeptidyl peptidase IV (Example 15). Particulars: Gly-Pro-AMC, room temperature. The procedure:
as §1, §2

Test [3] has as its target recombinant human prolyl oligopeptidase (PREP) (Homo sapiens (Human), UniProt P48147). Description: In vitro IC50 assay, prolyl oligopeptidase (Example 15). The procedure: as §1, §2
The mark [4] stands for this setting: Z-Gly-Pro-AMC, room temperature, read-out: FAP IC50.
Where [5] appears, read: Z-Gly-Pro-AMC, room temperature, read-out: PREP IC50.

Several values for one entry are separate records, joined by “and”; a condition that tells them apart may be missing. Equal values may be shown once. Read-outs that look alike come from different tables or passages of the source. Where a SMILES comes first, the peptide text is derived from it.

Sequence of recombinant human dipeptidyl peptidase IV (DPPIV) (P27487 whole entry): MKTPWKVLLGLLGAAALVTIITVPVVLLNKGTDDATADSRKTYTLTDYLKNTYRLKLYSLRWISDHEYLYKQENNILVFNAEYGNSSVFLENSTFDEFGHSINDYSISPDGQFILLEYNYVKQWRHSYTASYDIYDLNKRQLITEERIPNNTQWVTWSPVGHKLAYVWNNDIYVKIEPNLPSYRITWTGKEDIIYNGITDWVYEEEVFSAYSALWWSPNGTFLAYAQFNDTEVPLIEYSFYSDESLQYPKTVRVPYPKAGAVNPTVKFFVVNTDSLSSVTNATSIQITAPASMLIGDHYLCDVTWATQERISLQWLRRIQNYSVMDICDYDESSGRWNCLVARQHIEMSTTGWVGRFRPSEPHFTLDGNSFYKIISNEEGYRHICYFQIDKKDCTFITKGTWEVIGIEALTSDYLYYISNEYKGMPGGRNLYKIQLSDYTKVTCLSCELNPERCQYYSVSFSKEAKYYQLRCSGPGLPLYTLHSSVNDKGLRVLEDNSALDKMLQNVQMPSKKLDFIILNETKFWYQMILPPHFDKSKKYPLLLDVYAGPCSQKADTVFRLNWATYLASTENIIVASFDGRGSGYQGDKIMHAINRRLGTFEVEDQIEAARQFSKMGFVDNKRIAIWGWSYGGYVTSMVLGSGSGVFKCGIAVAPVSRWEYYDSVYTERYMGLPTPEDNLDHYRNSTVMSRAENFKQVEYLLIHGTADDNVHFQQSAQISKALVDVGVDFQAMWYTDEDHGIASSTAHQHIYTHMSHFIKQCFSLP
Sequence of recombinant human fibroblast activation protein (FAP) (Q12884 whole entry): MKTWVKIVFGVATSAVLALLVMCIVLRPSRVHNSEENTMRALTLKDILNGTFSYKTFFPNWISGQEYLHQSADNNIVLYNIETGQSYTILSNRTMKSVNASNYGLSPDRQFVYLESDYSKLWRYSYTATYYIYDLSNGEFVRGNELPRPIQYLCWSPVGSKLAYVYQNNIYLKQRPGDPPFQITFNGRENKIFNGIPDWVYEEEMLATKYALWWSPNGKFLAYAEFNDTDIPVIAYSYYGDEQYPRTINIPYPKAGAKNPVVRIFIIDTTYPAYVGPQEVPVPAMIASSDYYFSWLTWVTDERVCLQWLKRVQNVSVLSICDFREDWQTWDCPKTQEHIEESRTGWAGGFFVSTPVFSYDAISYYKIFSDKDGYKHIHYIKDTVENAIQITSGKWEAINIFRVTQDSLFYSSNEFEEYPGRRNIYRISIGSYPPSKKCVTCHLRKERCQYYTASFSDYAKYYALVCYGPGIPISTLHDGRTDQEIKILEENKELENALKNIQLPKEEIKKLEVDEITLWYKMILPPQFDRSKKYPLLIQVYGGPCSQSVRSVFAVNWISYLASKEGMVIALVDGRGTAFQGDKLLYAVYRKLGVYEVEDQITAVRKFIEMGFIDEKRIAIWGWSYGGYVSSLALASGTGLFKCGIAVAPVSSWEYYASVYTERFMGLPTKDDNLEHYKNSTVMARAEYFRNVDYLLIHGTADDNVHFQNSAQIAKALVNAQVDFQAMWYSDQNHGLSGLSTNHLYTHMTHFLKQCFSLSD
Sequence of recombinant human prolyl oligopeptidase (PREP) (P48147 whole entry): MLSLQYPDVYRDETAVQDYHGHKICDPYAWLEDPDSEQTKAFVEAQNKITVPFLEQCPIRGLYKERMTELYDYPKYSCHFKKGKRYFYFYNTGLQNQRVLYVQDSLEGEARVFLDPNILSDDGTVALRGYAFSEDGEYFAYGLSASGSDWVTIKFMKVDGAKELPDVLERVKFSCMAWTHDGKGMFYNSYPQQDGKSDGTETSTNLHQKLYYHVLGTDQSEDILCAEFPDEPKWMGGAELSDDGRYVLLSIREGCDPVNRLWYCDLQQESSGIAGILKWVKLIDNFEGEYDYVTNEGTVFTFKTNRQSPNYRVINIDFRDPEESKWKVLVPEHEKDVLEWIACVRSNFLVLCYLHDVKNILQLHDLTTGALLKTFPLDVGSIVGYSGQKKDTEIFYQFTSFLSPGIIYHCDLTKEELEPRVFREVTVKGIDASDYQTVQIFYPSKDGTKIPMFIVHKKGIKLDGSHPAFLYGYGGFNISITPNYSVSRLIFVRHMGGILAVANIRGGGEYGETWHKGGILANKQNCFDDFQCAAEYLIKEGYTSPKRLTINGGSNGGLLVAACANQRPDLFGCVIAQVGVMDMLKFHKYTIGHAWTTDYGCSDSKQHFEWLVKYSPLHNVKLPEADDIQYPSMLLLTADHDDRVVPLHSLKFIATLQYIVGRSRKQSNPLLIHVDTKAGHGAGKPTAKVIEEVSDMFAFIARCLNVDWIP

Regarding `CC(C)[C@H](NC(=O)CNC(=O)CNC(=O)CNC(=O)CCC(C(=O)O)N1CCN(CC(=O)O)CCN(CC(=O)O)CCN(CC(=O)O)CC1)C(=O)N[C@H](C)C(=O)N1CCC[C@H]1B(O)O` (mixture of isomers) [Compound 6808, (R/S)-DOTAGA-(Gly)3-Val-Dala-boroPro], in test [1], the IC50 is 11.5 nM.
Turning to `CC(C)[C@H](NC(=O)CN1CCN2CCN(CC(=O)O)CCN(CC1)CC(=O)[O][Cu][O]C(=O)C2)C(=O)N[C@H](C)C(=O)N1CCC[C@H]1B(O)O` (stereo in doubt) [Compound 6508CU, DOTA[(Cu(II)]-Val-D-Ala-boroPro], the IC50 in test [1] (setting [4]) was found to be 26.2 nM.
For `C[C@@H](NC(=O)c1ccc(NN)nc1)C(=O)N1CCC[C@H]1B(O)O` [Compound 3860, N-(6-hydrazinylnicotincarbonyl)-D-AlaboroPro], in test [2], the half-maximal inhibitory concentration (IC50) is greater than 100000 nM.
For the compound `C[C@@H](NC(=O)CN1CCN(CC(=O)O)CCN(CC(=O)O)CCN(CC(=O)O)CC1)C(=O)N1CCC[C@H]1B(O)O` [Compound 4535, DOTA-D-ala-boroPro], the IC50 in test [3] was 10000 nM; in test [3] (setting [5]) it was greater than 10000 nM; in test [1], 33 nM.
As for `C[C@@H](NC(=O)CN1CCN2CCN3CCN(CC1)CC(=O)[O][Gd]([O]C(=O)C2)[O]C(=O)C3)C(=O)N1CCC[C@H]1B(O)O` [Compound 4535GD, DOTA[(Gd(III)]-D-alaboroPro], the results for the IC50 in test [3] (setting [5]) and in test [1] (setting [4]) were greater than 10000 nM and 760 nM, respectively.
In the case of `C[C@@H](NC(=O)c1ccc(NNC(=O)CN2CCN3CCN4CCN(CC2)CC(=O)[O][Gd]([O]C(=O)C3)[O]C(=O)C4)nc1)C(=O)N1CCC[C@H]1B(O)O` [Compound 4536GD], the half-maximal inhibitory concentration (IC50) in test [3] (setting [5]) and in test [2] was greater than 100000 nM in each case.
Consider `C[C@@H](NC(=O)c1ccc(NNC(=O)CN2CCN(CC(=O)O)CCN(CC(=O)O)CCN(CC(=O)O)CC2)nc1)C(=O)N1CCC[C@H]1B(O)O` [Compound 4536], for which the IC50 in test [3] (setting [5]) worked out at 750 nM.
Consider `C[C@@H](NC(=O)c1ccc(NNC(=O)CCCCCC2=C(/C=C/C3=C(Oc4ccc(S(=O)(=O)O)cc4)C(=C/C=C4/N(CCCCS(=O)(=O)O)c5ccc(S(=O)(=O)O)cc5C4(C)C)/CCC3)C(C)(C)c3cc(S(=O)(=O)O)ccc32)nc1)C(=O)N1CCC[C@H]1B(O)O` [Compound 4613B, IRDye800CW-3860], for which the IC50 in test [3] (setting [5]) was 390 nM; in test [2], greater than 100000 nM; in test [1] (setting [4]) it was 8.8 nM and 10 nM.
As for `C[C@@H](NC(=O)c1ccc(NNC(=O)CCCCCC2=C(/C=C/C3=C(Oc4ccc(S(=O)(=O)O)cc4)C(=C/C=C4/N(CCCCS(=O)(=O)O)c5ccc(S(=O)(=O)O)cc5C4(C)C)/CCC3)C(C)(C)c3cc(S(=O)(=O)O)ccc32)cc1)C(=O)N1CCC[C@H]1B(O)O` [Compound 4613C, IRDye 800CW-3860B], the results for the half-maximal inhibitory concentration (IC50) in test [3] (setting [5]) and in test [1] (setting [4]) were 610 nM and 1.7 nM, respectively.
Regarding `C[C@@H](NC(=O)c1ccc(NNC(=O)CN2CCN3CCN4CCN(CC2)CC(=O)[O][Ga]([O]C(=O)C3)[O]C(=O)C4)cc1)C(=O)N1CCC[C@H]1B(O)O` [Compound 5183GA], in test [1] (setting [4]), the half-maximal inhibitory concentration (IC50) turned out to be 46.1 nM.
Consider `C[C@@H](NC(=O)c1ccc(NNC(=O)CCCCCNC(=O)CN2CCN3CCN4CCN(CC2)CC(=O)[O][Ga]([O]C(=O)C3)[O]C(=O)C4)cc1)C(=O)N1CCC[C@H]1B(O)O` [Compound 6486GA], for which the values for the IC50 in test [3] (setting [5]), in test [2] and in test [1] (setting [4]) were 4700 nM, greater than 100000 nM and 81 nM, respectively.
For `C[C@@H](NC(=O)c1ccc(NNC(=O)CCCNC(=O)CN2CCN3CCN4CCN(CC2)CC(=O)[O][Ga]([O]C(=O)C3)[O]C(=O)C4)cc1)C(=O)N1CCC[C@H]1B(O)O` [Compound 6489GA] the same measures were 3400 nM, greater than 100000 nM and 39 nM.
For the compound `C[C@@H](NC(=O)[C@H](CO)NC(=O)CN1CCN(CC(=O)O)CCN(CC(=O)O)CCN(CC(=O)O)CC1)C(=O)N1CCC[C@H]1B(O)O` [Compound 6509, DOTA-Ser-D-Ala-boroPro], the IC50 in test [1] (setting [4]) is 186 nM.
As to `C[C@H](NC(=O)CN1CCN2CCN3CCN(CC1)CC(=O)[O][Gd]([O]C(=O)C2)[O]C(=O)C3)C(=O)N[C@H](C)C(=O)N1CCC[C@H]1B(O)O` [Compound 6511Gd, DOTA[(Gd(III)]-Ala-D-Ala-boroPro], the IC50 in test [1] (setting [4]) came out at 428 nM.
On to `CC(C)[C@H](NC(=O)CNC(=O)CNC(=O)CN1CCN(CC(=O)O)CCN(CC(=O)O)CCN(CC(=O)O)CC1)C(=O)N[C@H](C)C(=O)N1CCCC1B1OC(=O)CN(C)CC(=O)O1` (stereo partly drawn) [Compound 6522M, DOTA-Gly-Gly-Val-D-alaboroPro-MIDA] (HELM PEPTIDE1{[O=C(O)CN1CCN(CC(=O)O)CCN(CC(=O)[*:2])CCN(CC(=O)O)CC1].G.G.V.[dA].[CN1CC(=O)OB(C2CCCN2[*:1])OC(=O)C1]}$$$$V2.0), for which the IC50 in test [1] (setting [4]) was 280 nM.
Still for that read-out and setting: for `C[C@@H](NC(=O)c1ccc(NC(=O)CCCCNC(=O)CN2CCN3CCN4CCN(CC2)CC(=O)[O][Lu]([O]C(=O)C3)[O]C(=O)C4)cc1)C(=O)N1CCC[C@H]1B(O)O` [Compound 6590LU] the value was 0.4 nM.
For `C[C@@H](NC(=O)c1ccc(NNC(=O)CCCNC(=O)CN2CCN3CCN4CCN(CC2)CC(=O)[O][Lu]([O]C(=O)C3)[O]C(=O)C4)nc1)C(=O)N1CCC[C@H]1B(O)O` [Compound 6609LU], the half-inhibitory concentration (IC50) was 60 nM in test [3] (setting [5]) and 1 nM in test [1] (setting [4]).
Turning to `CC(C)[C@H](NC(=O)CNC(=O)CC[C@H](C(=O)O)N1CCN(CC(=O)O)CCN(CC(=O)O)CCN(CC(=O)O)CC1)C(=O)N[C@H](C)C(=O)N1CCC[C@H]1B(O)O` [Compound 6795D, (R)-DOTAGA-Gly-Val-D-ala-boroPro], the IC50 in test [2] was greater than 100000 nM.
On the same count and under the same terms, for `CC(C)[C@H](NC(=O)CNC(=O)CC[C@@H]1C(=O)[O][Lu]23[O]C(=O)CN4CCN(CCN1CCN(CC4)CC(=O)[O]2)CC(=O)[O]3)C(=O)N[C@H](C)C(=O)N1CCC[C@H]1B(O)O` [Compound 6795DLU, (R)-DOTAGA(Lu)-Gly-Val-Dala-boroPro] the value was greater than 100000 nM.
For the compound `CC(C)[C@H](NC(=O)CNC(=O)CC[C@H]1C(=O)[O][Lu]23[O]C(=O)CN4CCN(CCN1CCN(CC4)CC(=O)[O]2)CC(=O)[O]3)C(=O)N[C@H](C)C(=O)N1CCC[C@H]1B(O)O` [Compound 6795LLU, (S)-DOTAGA-Gly-Val-Dala-boroPro (6795L-Lu Complex)], the figures for the IC50 in test [3] and in test [1] were 6390 nM and 20.1 nM, respectively.
In the case of `CC(C)[C@H](NC(=O)CNC(=O)CNC(=O)CNC(=O)CNC(=O)CN1CCN(CC(=O)O)CCN(CC(=O)O)CCN(CC(=O)O)CC1)C(=O)N[C@H](C)C(=O)N1CCC[C@H]1B(O)O` [Compound 6839, DOTA-(Gly)4-Val-D-ala-boroPro] (HELM PEPTIDE1{[O=C(O)CN1CCN(CC(=O)O)CCN(CC(=O)[*:2])CCN(CC(=O)O)CC1].G.G.G.G.V.[dA].[OB(O)[C@@H]1CCCN1[*:1]]}$$$$V2.0), the IC50 in test [1] (setting [4]) was determined as 21 nM.
In the case of `C[C@@H](NC(=O)c1ccc(NNC(=O)CCCCCNC(=O)CN2CCN3CCN4CCN(CC2)CC(=O)[O][Lu]([O]C(=O)C3)[O]C(=O)C4)nc1)C(=O)N1CCC[C@H]1B(O)O` [Compound 6958LU], the IC50 was 155 nM in test [3] (setting [5]) and 1.1 nM in test [1] (setting [4]).
As to “(R)-DOTAGA(Ga)-(Gly)3-Val-Dala-boroPro [Compound 6808DGA]”, the concentration for half-maximal inhibition (IC50) in test [1] (setting [4]) is 89 nM.
